# Data: PubChem BioAssay AID256 (DTP/NCI, 2004)
# “And” between values parts separate entries of the source, which are not always exact repeats. Equal values may be shown once. Inconclusive results and toxic doses are left out.
# Tested on: CD2F1 mice, L1210 leukemia ip, survival T/C
# Assay: NCI In Vivo Anticancer Drug Screen. Data for tumor model L1210 Leukemia (intraperitoneal) in CD2F1 (CDF1) mice
# Conditions: higher = longer survival
# Procedure, shortened: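 Read-out first: treated-group measurement over vehicle-control measurement, expressed as a ratio. Animals bore a transplanted tumor line and were dosed with compound or vehicle.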
# [1] = endpoint: mean survival time, dose: 25.0 mg/kg/injection, schedule: Q01DX009 (ip), vehicle: water
# [2] = endpoint: mean survival time, dose: 50.0 mg/kg/injection, schedule: Q01DX009 (ip), vehicle: water
# [3] = endpoint: mean survival time, dose: 100.0 mg/kg/injection, schedule: Q01DX009 (ip), vehicle: water
# [4] = endpoint: mean survival time, dose: 200.0 mg/kg/injection, schedule: Q01DX009 (ip), vehicle: water
# [5] = endpoint: mean survival time, dose: 100.0 mg/kg/injection, schedule: Q04DX003 (ip), vehicle: saline with Tween-80
# [6] = endpoint: mean survival time, dose: 200.0 mg/kg/injection, schedule: Q04DX003 (ip), vehicle: saline with Tween-80
# [7] = endpoint: mean survival time, dose: 400.0 mg/kg/injection, schedule: Q04DX003 (ip), vehicle: saline with Tween-80
# [8] = endpoint: mean survival time, dose: 100.0 mg/kg/injection, schedule: Q04DX002 (ip), vehicle: saline with Tween-80
# [9] = endpoint: mean survival time, dose: 200.0 mg/kg/injection, schedule: Q04DX002 (ip), vehicle: saline with Tween-80
# [10] = endpoint: mean survival time, dose: 25.0 mg/kg/injection, schedule: Q01DX001 (ip), vehicle: saline with Tween-80
# [11] = endpoint: mean survival time, dose: 50.0 mg/kg/injection, schedule: Q01DX001 (ip), vehicle: saline with Tween-80
# [12] = endpoint: mean survival time, dose: 100.0 mg/kg/injection, schedule: Q01DX001 (ip), vehicle: saline with Tween-80
# [13] = endpoint: mean survival time, dose: 100.0 mg/kg/injection, schedule: Q01DX009 (ip), vehicle: saline with Tween-80
# [14] = endpoint: mean survival time, dose: 200.0 mg/kg/injection, schedule: Q01DX009 (ip), vehicle: saline with Tween-80
# [15] = endpoint: mean survival time, dose: 400.0 mg/kg/injection, schedule: Q01DX009 (ip), vehicle: saline with Tween-80
# [16] = endpoint: mean survival time, dose: 400.0 mg/kg/injection, schedule: Q04DX002 (ip), vehicle: saline with Tween-80
structure (smiles),measurement,setting,value
Cc1ccc(S(=O)(=O)NN=C(c2ccccc2)c2ccccc2)cc1,T/C,[1],101 % of control
same,T/C,[2],101 % of control
same,T/C,[3],95 % of control
same,T/C,[4],95 % of control
NC(=S)NC(=O)c1ccccc1,T/C,[5],94 % of control
same,T/C,[6],94 % of control
same,T/C,[7],94 % of control
CCCCCCCCNCCNCCCCCCCC,T/C,"endpoint: mean survival time, dose: 3.75 mg/kg/injection, schedule: Q01DX009 (ip), vehicle: Klucel (hydroxypropylcellulose) (HPC)",95 % of control
same,T/C,"endpoint: mean survival time, dose: 7.5 mg/kg/injection, schedule: Q01DX009 (ip), vehicle: Klucel (hydroxypropylcellulose) (HPC)",95 % of control
same,T/C,"endpoint: mean survival time, dose: 15.0 mg/kg/injection, schedule: Q01DX009 (ip), vehicle: Klucel (hydroxypropylcellulose) (HPC)",87 % of control
CC(=O)N/N=C/C(C)(C)C(C)(C)/C=N/NC(C)=O,T/C,[8],103 % of control
same,T/C,[9],122 % of control
Fc1c(F)c(N(c2ccccc2)c2ccccc2)c(F)c(F)c1N(c1ccccc1)c1ccccc1,T/C,[5],95 % of control
same,T/C,[6],95 % of control
same,T/C,[7],93 % of control
CC(C)N1CCSC1=S,T/C,"endpoint: mean survival time, dose: 25.0 mg/kg/injection, schedule: Q01DX009 (ip), vehicle: saline sonified",101 % of control
same,T/C,"endpoint: mean survival time, dose: 50.0 mg/kg/injection, schedule: Q01DX009 (ip), vehicle: saline sonified",98 % of control
same,T/C,"endpoint: mean survival time, dose: 100.0 mg/kg/injection, schedule: Q01DX009 (ip), vehicle: saline sonified",106 % of control
same,T/C,[5],100 % of control
same,T/C,"endpoint: mean survival time, dose: 200.0 mg/kg/injection, schedule: Q01DX009 (ip), vehicle: saline sonified",88 % of control
same,T/C,[6],99 % of control
same,T/C,[7],97 % of control
CSc1ncnc2c1ncn2C1OC(CO)C(O)C1O (configuration not stated),T/C,"endpoint: mean survival time, dose: 4.0 mg/kg/injection, schedule: Q01DX009 (ip), vehicle: saline",118 % of control
same,T/C,"endpoint: mean survival time, dose: 5.0 mg/kg/injection, schedule: Q01DX005 (ip), vehicle: saline",118 % of control and 124 % of control
same,T/C,"endpoint: mean survival time, dose: 5.0 mg/kg/injection, schedule: Q01DX007 (ip), vehicle: saline",110 % of control
same,T/C,"endpoint: mean survival time, dose: 5.0 mg/kg/injection, schedule: Q01DX009 (ip), vehicle: saline",114 % of control
same,T/C,"endpoint: mean survival time, dose: 5.0 mg/kg/injection, schedule: Q03DX003 (ip), vehicle: saline",115 % of control
same,T/C,"endpoint: mean survival time, dose: 5.0 mg/kg/injection, schedule: Q04DX003 (ip), vehicle: saline",103 % of control
same,T/C,"endpoint: mean survival time, dose: 10.0 mg/kg/injection, schedule: Q01DX007 (ip), vehicle: saline",116 % of control
same,T/C,"endpoint: mean survival time, dose: 10.0 mg/kg/injection, schedule: Q01DX009 (ip), vehicle: saline",121 % of control
same,T/C,"endpoint: mean survival time, dose: 10.0 mg/kg/injection, schedule: Q03DX003 (ip), vehicle: saline",122 % of control
same,T/C,"endpoint: mean survival time, dose: 10.0 mg/kg/injection, schedule: Q04DX003 (ip), vehicle: saline",112 % of control
same,T/C,"endpoint: mean survival time, dose: 12.5 mg/kg/injection, schedule: Q01DX009 (ip), vehicle: saline",150 % of control
same,T/C,"endpoint: mean survival time, dose: 20.0 mg/kg/injection, schedule: Q01DX005 (ip), vehicle: saline",154 % of control
same,T/C,"endpoint: mean survival time, dose: 20.0 mg/kg/injection, schedule: Q04DX003 (ip), vehicle: saline",114 % of control
same,T/C,"endpoint: mean survival time, dose: 25.0 mg/kg/injection, schedule: Q01DX001 (ip), vehicle: saline",118 % of control
same,T/C,"endpoint: mean survival time, dose: 32.0 mg/kg/injection, schedule: Q01DX009 (ip), vehicle: saline",115 % of control
same,T/C,"endpoint: mean survival time, dose: 40.0 mg/kg/injection, schedule: Q01DX005 (ip), vehicle: saline",164 % of control and 166 % of control
same,T/C,"endpoint: mean survival time, dose: 64.0 mg/kg/injection, schedule: Q01DX009 (ip), vehicle: saline",80 % of control
same,T/C,"endpoint: mean survival time, dose: 80.0 mg/kg/injection, schedule: Q01DX005 (ip), vehicle: saline",119 % of control
same,T/C,"endpoint: median survival time, dose: 18.0 mg/kg/injection, schedule: Q01DX009 (ip), vehicle: saline",155 % of control
same,T/C,"endpoint: median survival time, dose: 27.0 mg/kg/injection, schedule: Q01DX009 (ip), vehicle: saline",170 % of control and 191 % of control
same,T/C,"endpoint: median survival time, dose: 30.0 mg/kg/injection, schedule: Q01DX009 (ip), vehicle: saline",158 % of control and 161 % of control
same,T/C,"endpoint: median survival time, dose: 35.0 mg/kg/injection, schedule: Q01DX009 (ip), vehicle: saline",183 % of control
same,T/C,"endpoint: median survival time, dose: 45.0 mg/kg/injection, schedule: Q01DX009 (ip), vehicle: saline",119 % of control and 108 % of control
same,T/C,"endpoint: median survival time, dose: 123.0 mg/kg/injection, schedule: Q01DX001 (ip), vehicle: saline",157 % of control
same,T/C,"endpoint: median survival time, dose: 185.0 mg/kg/injection, schedule: Q01DX001 (ip), vehicle: saline with Tween-80",160 % of control
same,T/C,"endpoint: median survival time, dose: 185.0 mg/kg/injection, schedule: Q01DX001 (ip), vehicle: saline",151 % of control
CCOC(=O)C1OC12c1cccc3cccc(c13)C21OC1C(=O)OCC (configuration not stated),T/C,[5],97 % of control
same,T/C,[6],95 % of control
same,T/C,[7],91 % of control
CC(=O)Nc1ccc(/C=C/[N+](=O)[O-])cc1,T/C,"endpoint: mean survival time, dose: 75.0 mg/kg/injection, schedule: Q01DX001 (ip), vehicle: other",105 % of control
same,T/C,"endpoint: mean survival time, dose: 150.0 mg/kg/injection, schedule: Q01DX001 (ip), vehicle: other",108 % of control
same,T/C,"endpoint: mean survival time, dose: 300.0 mg/kg/injection, schedule: Q01DX001 (ip), vehicle: other",114 % of control
OC1(c2ccccc2)c2cscc2C(O)(c2ccccc2)c2c(Cl)sc(Cl)c21 (configuration not stated),T/C,"endpoint: mean survival time, dose: 6.25 mg/kg/injection, schedule: Q01DX001 (ip), vehicle: saline with Tween-80",100 % of control
same,T/C,"endpoint: mean survival time, dose: 12.5 mg/kg/injection, schedule: Q01DX001 (ip), vehicle: saline with Tween-80",95 % of control
same,T/C,[10],88 % of control
Cc1ccc(S(=O)(=O)Nc2ccccc2SSc2ccccc2NS(=O)(=O)c2ccc(C)cc2)cc1,T/C,"endpoint: mean survival time, dose: 100.0 mg/kg/injection, schedule: Q01DX001 (ip), vehicle: Klucel (hydroxypropylcellulose) (HPC)",96 % of control
same,T/C,"endpoint: mean survival time, dose: 200.0 mg/kg/injection, schedule: Q01DX001 (ip), vehicle: Klucel (hydroxypropylcellulose) (HPC)",96 % of control
same,T/C,"endpoint: mean survival time, dose: 400.0 mg/kg/injection, schedule: Q01DX001 (ip), vehicle: Klucel (hydroxypropylcellulose) (HPC)",90 % of control
OC(CI)C(O)C(O)C(O)CI (configuration not stated) (tested in a mixture with another compound),T/C,[11],96 % of control
same,T/C,[12],100 % of control
same,T/C,"endpoint: mean survival time, dose: 200.0 mg/kg/injection, schedule: Q01DX001 (ip), vehicle: saline with Tween-80",96 % of control
O=C(O)c1ccc(CC23CC4CC(CC(C4)C2)C3)cc1,T/C,[12],91 % of control
same,T/C,[13],96 % of control
same,T/C,[14],91 % of control
same,T/C,"endpoint: mean survival time, dose: 400.0 mg/kg/injection, schedule: Q01DX001 (ip), vehicle: saline with Tween-80",91 % of control
same,T/C,[15],86 % of control
O=C(CN1CCOCC1)Nc1nc(-c2ccc(Cl)cc2)cs1,T/C,"endpoint: median survival time, dose: 12.5 mg/kg/injection, schedule: Q01DX009 (ip), vehicle: saline with Tween-80",102 % of control
same,T/C,"endpoint: median survival time, dose: 25.0 mg/kg/injection, schedule: Q01DX009 (ip), vehicle: saline with Tween-80",98 % of control
same,T/C,"endpoint: median survival time, dose: 50.0 mg/kg/injection, schedule: Q01DX009 (ip), vehicle: saline with Tween-80",98 % of control
same,T/C,"endpoint: median survival time, dose: 100.0 mg/kg/injection, schedule: Q01DX009 (ip), vehicle: saline with Tween-80",105 % of control
same,T/C,"endpoint: median survival time, dose: 200.0 mg/kg/injection, schedule: Q01DX009 (ip), vehicle: saline with Tween-80",93 % of control
OCC(O)COCC#Cc1ccccc1 (configuration not stated),T/C,[1],97 % of control
same,T/C,[2],92 % of control
same,T/C,[3],101 % of control
same,T/C,[4],101 % of control
CC1(C)N=C(N)N=C(N)N1c1ccc(OCCCCNC(=O)Nc2cccc(S(=O)(=O)F)c2)c(Cl)c1,T/C,[10],105 % of control
same,T/C,[11],103 % of control
same,T/C,[12],95 % of control and 97 % of control
SCc1c(Cl)c(Cl)c(Cl)c(Cl)c1Cl,T/C,[8],94 % of control
same,T/C,[9],87 % of control
same,T/C,[16],97 % of control
Cc1ccc(S(=O)(=O)c2ccc(F)cc2)cc1,T/C,[13],100 % of control
same,T/C,[14],102 % of control
same,T/C,[15],96 % of control
Cc1nc(-c2ccccc2)c(Cc2c(O)ccc3ccccc23)c(=O)[nH]1,T/C,"endpoint: mean survival time, dose: 100.0 mg/kg/injection, schedule: Q01DX001 (ip), vehicle: saline",97 % of control
same,T/C,"endpoint: mean survival time, dose: 200.0 mg/kg/injection, schedule: Q01DX001 (ip), vehicle: saline",100 % of control
same,T/C,"endpoint: mean survival time, dose: 400.0 mg/kg/injection, schedule: Q01DX001 (ip), vehicle: saline",100 % of control
COc1ccc(CCN2CC34C=CC(O3)C(C(=O)O)C4C2=O)cc1OCc1ccccc1 (configuration not stated),T/C,[8],95 % of control
same,T/C,[9],95 % of control
same,T/C,[16],95 % of control
